# Patent US20250171430A1, “PYRAZOLYL COMPOUNDS AS KV7 CHANNEL ACTIVATORS” (Biohaven Therapeutics Ltd., priority 2022, published 2025)
# Biological target: T1, Kv7.2/7.3 (Homo sapiens, UniProt O43525+O43526)
# T1 construct: Kv7.2 tetracycline-induced, Kv7.3 constitutive
# Assay: Kv7.2/7.3 Activation Assay (Thallium Flux Assay)
# Type: cell-based
# Settings: hKV7.2/7.3 cell line; test compound at single concentration of 10 μM; fluorescence at 90 sec normalized to positive control (retigabine, 30 μM)
# Method in brief: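 Human Kv7.2/7.3 cells with Kv7.2 induced overnight by 10 ng/mL tetracycline were loaded with FluxOR II Green for 1 h at 37 °C. Compounds were tested at 10 μM in 0.1% DMSO/extracellular solution, pH 7.4. Thallium/potassium stimulus was added after a 15 s baseline, and 90 s fluorescence (ex 475/em 530 nm) was normalized to 30 μM retigabine.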
row,Structure (SMILES),Kv7.2/7.3 Activity
1,"Cn1nc(NC(=O)CC2CC(F)(F)C2)c(C2CCC2)c1-c1ccc(Cl)c(F)c1 [Compound 250, N-(5-(4-chloro-3-fluorophenyl)-4-cyclobutyl-1-methyl-1H-pyrazol-3-yl)-2-(3,3-difluorocyclobutyl)acetamide]",++ (“++” High Activity ≥ 0.7)
2,"Cn1nc(NC(=O)NCC(C)(C)C)c(C2CCC2)c1-c1ccc(F)cc1 [Compound 251, 1-(4-cyclobutyl-5-(4-fluorophenyl)-1-methyl-1H-pyrazol-3-yl)-3-neopentylurea]",+ (“+” Moderate Activity 0.15-0.7)
3,"Cn1nc(NC(=O)NC2(C)COC2)c(C2CCC2)c1-c1ccc(F)cc1 [Compound 252, 1-(4-cyclobutyl-5-(4-fluorophenyl)-1-methyl-1H-pyrazol-3-yl)-3-(3-methyloxetan-3-yl)urea]",+ (“+” Moderate Activity 0.15-0.7)
4,"Cn1nc(NC(=O)[C@@H]2C[C@@H]2F)c(C2CCC2)c1-c1ccc(F)cc1 [Compound 253, (1S,2S)-N-(4-cyclobutyl-5-(4-fluorophenyl)-1-methyl-1H-pyrazol-3-yl)-2-fluorocyclopropane-1-carboxamide]",− (“−” No Activity < 0.15)
5,"Cn1nc(NC(=O)C[C@@H]2CC(F)(F)C2(F)F)c(C2CCC2)c1-c1ccc(F)cn1 [Compound 254, (R)-N-(4-cyclobutyl-5-(5-fluoropyridin-2-yl)-1-methyl-1H-pyrazol-3-yl)-2-(2,2,3,3-tetrafluorocyclobutyl)acetamide]",++ (“++” High Activity ≥ 0.7)
6,"Cn1nc(NC(=O)C2CC(F)(F)C2)c(C2CCC2)c1-c1cc(F)cc(F)c1 [Compound 255, N-(4-cyclobutyl-5-(3,5-difluorophenyl)-1-methyl-1H-pyrazol-3-yl)-3,3-difluorocyclobutane-1-carboxamide]",++ (“++” High Activity ≥ 0.7)
7,"Cn1nc(NC(=O)C[C@@H]2CC(F)(F)C2(F)F)c(C2CCC2)c1-c1cc(F)cc(F)c1 [Compound 256, (R)-N-(4-cyclobutyl-5-(3,5-difluorophenyl)-1-methyl-1H-pyrazol-3-yl)-2-(2,2,3,3-tetrafluorocyclobutyl)acetamide]",++ (“++” High Activity ≥ 0.7)
8,"Cn1nc(NC(=O)C2CSC2)c(C2CCC2)c1-c1cc(F)cc(F)c1 [Compound 257, N-(4-cyclobutyl-5-(3,5-difluorophenyl)-1-methyl-1H-pyrazol-3-yl)thietane-3-carboxamide]",++ (“++” High Activity ≥ 0.7)
9,"Cn1nc(NC(=O)CC2CC(F)(F)C2)c(C2CCC2)c1-c1cc(F)cc(F)c1 [Compound 258, N-(4-cyclobutyl-5-(3,5-difluorophenyl)-1-methyl-1H-pyrazol-3-yl)-2-(3,3-difluorocyclobutyl)acetamide]",++ (“++” High Activity ≥ 0.7)
10,"Cn1nc(NC(=O)CC2(C(F)F)CC2)c(C2CCC2)c1-c1cc(F)cc(F)c1 [Compound 259, N-(4-cyclobutyl-5-(3,5-difluorophenyl)-1-methyl-1H-pyrazol-3-yl)-2-(1-(difluoromethyl)cyclopropyl)acetamide]",++ (“++” High Activity ≥ 0.7)
11,"Cn1nc(NC(=O)OC2CC(F)(F)C2)c(C2CCC2)c1-c1ccc(Cl)c(F)c1 [Compound 260, 3,3-difluorocyclobutyl (5-(4-chloro-3-fluorophenyl)-4-cyclobutyl-1-methyl-1H-pyrazol-3-yl)carbamate]",++ (“++” High Activity ≥ 0.7)
12,"Cn1nc(NC(=O)C2CC(F)(F)C2)c(C2CCC2)c1-c1cc(F)c(F)c(F)c1 [Compound 261, N-(4-cyclobutyl-1-methyl-5-(3,4,5-trifluorophenyl)-1H-pyrazol-3-yl)-3,3-difluorocyclobutane-1-carboxamide]",++ (“++” High Activity ≥ 0.7)
13,"Cn1nc(NC(=O)C[C@@H]2CC(F)(F)C2(F)F)c(C2CCC2)c1-c1cc(F)c(F)c(F)c1 [Compound 262, (R)-N-(4-cyclobutyl-1-methyl-5-(3,4,5-trifluorophenyl)-1H-pyrazol-3-yl)-2-(2,2,3,3-tetrafluorocyclobutyl)acetamide]",++ (“++” High Activity ≥ 0.7)
14,"Cn1nc(NC(=O)C2CSC2)c(C2CCC2)c1-c1cc(F)c(F)c(F)c1 [Compound 263, N-(4-cyclobutyl-1-methyl-5-(3,4,5-trifluorophenyl)-1H-pyrazol-3-yl)thietane-3-carboxamide]",++ (“++” High Activity ≥ 0.7)
15,"Cn1nc(NC(=O)CC2CC(F)(F)C2)c(C2CCC2)c1-c1cc(F)c(F)c(F)c1 [Compound 264, N-(4-cyclobutyl-1-methyl-5-(3,4,5-trifluorophenyl)-1H-pyrazol-3-yl)-2-(3,3-difluorocyclobutyl)acetamide]",++ (“++” High Activity ≥ 0.7)
16,"Cn1nc(NC(=O)CC2(C(F)F)CC2)c(C2CCC2)c1-c1cc(F)c(F)c(F)c1 [Compound 265, N-(4-cyclobutyl-1-methyl-5-(3,4,5-trifluorophenyl)-1H-pyrazol-3-yl)-2-(1-(difluoromethyl)cyclopropyl)acetamide]",++ (“++” High Activity ≥ 0.7)
17,"Cn1nc(NC(=O)C[C@H]2CC(F)(F)C2(F)F)c(C2CCC2)c1-c1cc(F)cc(F)c1 [Compound 266, (S)-N-(4-cyclobutyl-5-(3,5-difluorophenyl)-1-methyl-1H-pyrazol-3-yl)-2-(2,2,3,3-tetrafluorocyclobutyl)acetamide]",++ (“++” High Activity ≥ 0.7)
18,"C[C@@H](C(=O)Nc1nn(C)c(-c2cc(F)cc(F)c2)c1C1CCC1)C1CC(F)(F)C1 [Compound 267, (R)-N-(4-cyclobutyl-5-(3,5-difluorophenyl)-1-methyl-1H-pyrazol-3-yl)-2-(3,3-difluorocyclobutyl)propanamide]",++ (“++” High Activity ≥ 0.7)
19,"C[C@H](C(=O)Nc1nn(C)c(-c2cc(F)cc(F)c2)c1C1CCC1)C1CC(F)(F)C1 [Compound 268, (S)-N-(4-cyclobutyl-5-(3,5-difluorophenyl)-1-methyl-1H-pyrazol-3-yl)-2-(3,3-difluorocyclobutyl)propanamide]",+ (“+” Moderate Activity 0.15-0.7)
20,"Cn1nc(NC(=O)OC2CC(F)(F)C2)c(C2CCC2)c1-c1cc(F)cc(F)c1 [Compound 269, 3,3-difluorocyclobutyl (4-cyclobutyl-5-(3,5-difluorophenyl)-1-methyl-1H-pyrazol-3-yl)carbamate]",++ (“++” High Activity ≥ 0.7)
21,"Cn1nc(NC(=O)NC2CC(F)(F)C2)c(C2CCC2)c1-c1cc(F)cc(F)c1 [Compound 270, 1-(4-cyclobutyl-5-(3,5-difluorophenyl)-1-methyl-1H-pyrazol-3-yl)-3-(3,3-difluorocyclobutyl)urea]",++ (“++” High Activity ≥ 0.7)
22,"Cc1cccc(-c2c(NC(=O)C3CC(F)(F)C3)nn(C)c2C2CC(F)(F)C2)c1 [Compound 271, N-(5-(3,3-difluorocyclobutyl)-1-methyl-4-(m-tolyl)-1H-pyrazol-3-yl)-3,3-difluorocyclobutane-1-carboxamide]",+ (“+” Moderate Activity 0.15-0.7)
23,"Cn1nc(NC(=O)C2CC(F)(F)C2)c(C2CCC2)c1-c1ccc(OC(F)F)nc1 [Compound 272, N-(4-cyclobutyl-5-(6-(difluoromethoxy)pyridin-3-yl)-1-methyl-1H-pyrazol-3-yl)-3,3-difluorocyclobutane-1-carboxamide]",+ (“+” Moderate Activity 0.15-0.7)
24,"Cn1nc(NC(=O)C[C@@H]2CC(F)(F)C2(F)F)c(C2CCC2)c1C1CCC(F)(F)CC1 [Compound 273, (R)-N-(4-cyclobutyl-5-(4,4-difluorocyclohexyl)-1-methyl-1H-pyrazol-3-yl)-2-(2,2,3,3-tetrafluorocyclobutyl)acetamide]",++ (“++” High Activity ≥ 0.7)
25,"Cn1nc(NC(=O)OC2CC(F)(F)C2)c(C2CCC2)c1C1CC(F)(F)C1 [Compound 274, 3,3-difluorocyclobutyl (4-cyclobutyl-5-(3,3-difluorocyclobutyl)-1-methyl-1H-pyrazol-3-yl)carbamate]",++ (“++” High Activity ≥ 0.7)
26,"Cn1nc(NC(=O)C2COC2)c(C2CCC2)c1-c1cc(F)c(F)c(F)c1 [Compound 275, N-(4-cyclobutyl-1-methyl-5-(3,4,5-trifluorophenyl)-1H-pyrazol-3-yl)oxetane-3-carboxamide]",− (“−” No Activity < 0.15)
27,"Cn1nc(NC(=O)C2COC2)c(C2CCC2)c1-c1ccc(Cl)s1 [Compound 276, N-(5-(5-chlorothiophen-2-yl)-4-cyclobutyl-1-methyl-1H-pyrazol-3-yl)oxetane-3-carboxamide]",+ (“+” Moderate Activity 0.15-0.7)
28,"Cn1nc(NC(=O)NC2CC(F)(F)C2)c(C2CCC2)c1-c1ccc(C(F)(F)F)cc1 [Compound 277, 1-(4-cyclobutyl-1-methyl-5-(4-(trifluoromethyl)phenyl)-1H-pyrazol-3-yl)-3-(3,3-difluorocyclobutyl)urea]",+ (“+” Moderate Activity 0.15-0.7)
29,"Cn1nc(NC(=O)C2COC2)c(C2CCC2)c1-c1ccc(F)c(F)c1 [Compound 278, N-(4-cyclobutyl-5-(3,4-difluorophenyl)-1-methyl-1H-pyrazol-3-yl)oxetane-3-carboxamide]",− (“−” No Activity < 0.15)
30,"Cn1nc(NC(=O)OC2CC(F)(F)C2)c(C2CCC2)c1-c1ccc(C(F)(F)F)cc1 [Compound 279, 3,3-difluorocyclobutyl (4-cyclobutyl-1-methyl-5-(4-(trifluoromethyl)phenyl)-1H-pyrazol-3-yl)carbamate]",+ (“+” Moderate Activity 0.15-0.7)
